Assay results: patent US7317038B2, “Nerve regeneration promoters containing semaphorin inhibitor as the active ingredient” (Dainippon Sumitomo Pharma Co., Ltd., priority 2000, dated 2008)
“Also recorded” adds a separate entry of the source.

What was measured:
Sema3A = biological target: T1, Sema3A (Mus musculus, UniProt O08665); assay: Inhibition of collapse activity by contact of Sema3A and the inhibitor (Pre-Mix); type: cell-based; settings: final concentration 0.05 μg/ml
T1 construct: expressed in transfected cells; host or cells: COS7
T1 sequence (O08665 21-772): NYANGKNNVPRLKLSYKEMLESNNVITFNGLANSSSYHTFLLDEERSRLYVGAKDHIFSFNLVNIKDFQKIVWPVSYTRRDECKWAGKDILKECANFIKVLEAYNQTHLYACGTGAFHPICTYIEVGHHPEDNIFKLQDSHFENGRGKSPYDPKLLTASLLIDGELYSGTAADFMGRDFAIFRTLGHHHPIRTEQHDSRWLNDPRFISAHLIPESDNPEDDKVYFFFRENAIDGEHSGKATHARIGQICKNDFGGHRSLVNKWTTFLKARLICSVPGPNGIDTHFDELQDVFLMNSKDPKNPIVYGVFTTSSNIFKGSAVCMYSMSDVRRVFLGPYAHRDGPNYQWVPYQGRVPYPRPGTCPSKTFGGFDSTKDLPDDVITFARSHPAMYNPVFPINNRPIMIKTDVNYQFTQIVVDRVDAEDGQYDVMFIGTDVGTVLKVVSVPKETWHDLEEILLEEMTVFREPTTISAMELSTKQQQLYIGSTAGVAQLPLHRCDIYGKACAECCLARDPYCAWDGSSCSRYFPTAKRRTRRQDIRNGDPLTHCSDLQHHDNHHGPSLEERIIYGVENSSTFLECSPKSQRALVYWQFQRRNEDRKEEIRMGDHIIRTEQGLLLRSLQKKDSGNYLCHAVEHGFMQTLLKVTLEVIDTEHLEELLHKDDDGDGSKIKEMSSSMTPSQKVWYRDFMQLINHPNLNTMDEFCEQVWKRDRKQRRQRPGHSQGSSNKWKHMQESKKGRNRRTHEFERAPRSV
Description: For example, the inhibitory activity of SPF-3059-1 for the binding of Sema3A to Neuropilin-1 was actually examined by using the alkaline phosphatase-fused Sema3A (=Sema3A-AP) and Neuropilin-1-expressing COS7 cells. SPF-3059-1 is a compound discovered by the present inventors, which inhibits both collapse and neurite outgrowth inhibition induced by semaphorin 3A (Sema3A). […] Further, in order to elucidate the mechanism of the said inhibition, that is, in order to elucidate whether SPF-3059-1 interacts with Sema3A or with its receptor, the comparison was made by measuring collapse activity between (1) the collapse activity which was observed when a sample, to which SPF-3059-1 and Sema3A were mixed in advance at the concentration raising sufficient inhibitory activity (0.25 μg/ml of SPF-3059-1), was added to the culture solution of dorsal root ganglions and (2) the collapse activity which was observed when Sema3A was added to the above-mentioned culture solution after the addition of SPF-3059-1. The final concentration of SPF-3059-1 (0.05 μg/ml) in the culture solution was the same both for (1) and (2). […] From the above considerations, SPF-3059-1 is thought to act by a mechanism in which the binding of Sema3A to the receptor is inhibited by the direct action of SPF-3059-1 on Sema3A. […]

[1] = biological target: T2, mouse semaphorin 3A (Sema3A) (Mus musculus, UniProt O08665); assay: Suppression of growth cone collapse activity of Sema3A (chick embryo dorsal root ganglions); type: cell-based
T2 sequence (O08665 21-772): T1 sequence (O08665 21-772)
Experimental: A 96-well plate (Sumitomo Bakelite Co., ltd. ) pre-coated with polylysine was further coated with laminine (20 μg/ml of laminine, for 1 hour at room temperature). Each well was added with 100 μl of medium (F12 medium containing 10% bovine fetal serum, 20 ng/ml of NGF, 100 units/ml of penicillin and 100 μg/ml of streptomycin) which media were then inoculated with dorsal root nerve ganglions excised from E7 (Embryonic day 7) chick embryo and were cultured for 16 to 20 hours under 5% CO2 and at 37° C. Subsequently, the object compounds were added to media at various concentrations and 2 units/ml of mouse semaphorin 3A (Sema3A) was added after cultivating for 1 hour. The cultures were further incubated for another 1 hour. Glutaraldehyde was quickly added therein after said 1 hour to make the final concentration 1%. The cultures were then left for 15 minutes at room temperature so that the tissue sections were fixed, and collapse rates of the growth cones were microscopically observed. A well with no addition of Sema3A was made the control.
The longitudinal and lateral axes in the figures represent the collapse rate of growth cones and the concentration of compounds, respectively. ●▪▴ show the results when Sema3A was added after the addition of the compounds and ◯[…]Δ show those when Sema3A was not added. Further, IC50 (μg/ml) of the inhibitors were determined by the method comprising: calculating the collapse rate of growth cone (A) % of the negative controls (neither compounds nor Sema3a was added); subsequently calculate the collapse rate of growth cone (B) % of the positive controls (compounds were not added but Sema3a was added); and the concentration was chosen for each compound from the chart where the collapse rate of growth cone met (A+B)/2(%), which was made IC50 level. The followings are the results.

IC50 ([1]; E7 chick embryo dorsal root ganglions, 2 units/ml Sema3A added 1 hour after compound, concentration where collapse rate = (A+B)/2, read-out: IC50 of inhibition of the growth cone collapse activity of Sema3A (converted)): < 173 nM
Compound: CC(=O)c1c(C)c(C(=O)C2COc3cc(O)c(O)c(C(=O)O)c3C2=O)cc2c(=O)c3c(C(=O)O)c(O)c(O)cc3oc12 (stereo not shown) [SPF-3059-1]
inhibition of Sema3A collapse activity, Pre-Mix sample (Sema3A; Sema3A pre-mixed with 0.25 μg/ml compound): Sema3A activity was inhibited; also recorded: inhibition of collapse activity was observed
inhibition of Sema3A collapse activity, compound and Sema3A independently added (Sema3A): inhibitory activity will not be observed; also recorded: Inhibition of collapse activity was not observed
inhibition of growth cone collapse activity of Sema3A (in words) ([1]; chick embryo dorsal root ganglions): inhibit the growth cone collapse activities of Sema3A in a concentration-dependent manner; also recorded: potently inhibit semaphorin
